{
  "source": "ChEMBL document CHEMBL1151757",
  "about": "“Synthesis, radiosynthesis, and biological evaluation of fluorine-18-labeled 2beta-carbo(fluoroalkoxy)-3beta-(3'-((Z)-2-haloethenyl)phenyl)nortropanes: candidate radioligands for in vivo imaging of the serotonin transporter with positron emission tomography” (J Med Chem, 2008)",
  "data": [
    {"system": "not listed separately", "experiment": "Ratio of drug uptake in occipital lobe to cerebellum in anesthetized cynomolgus monkey after 95 mins postinjection", "format": "ADME, organism-based, Macaca fascicularis", "details": "in vivo", "values": [
      {"smiles": "O=C(OCCC[18F])C1C2CCC(CC1c1cccc(/C=C\\Br)c1)N2", "note": "(stereo not given)", "Ratio": 1.1}
    ]},
    {"system": "Caudate", "experiment": "Drug uptake in anesthetized cynomolgus monkey brain caudate after 12.5 mins postinjection", "format": "ADME, organism-based, Macaca fascicularis, Caudate nucleus", "details": "in vivo", "values": [
      {"smiles": "O=C(OCCC[18F])C1C2CCC(CC1c1cccc(/C=C\\Br)c1)N2", "note": "(stereo not given)", "Drug uptake": 4.23}
    ]},
    {"system": "Pons", "experiment": "Drug uptake in anesthetized cynomolgus monkey brain pons after 0.5 mins postinjection", "format": "ADME, organism-based, Macaca fascicularis", "details": "in vivo", "values": [
      {"smiles": "O=C(OCCC[18F])C1C2CCC(CC1c1cccc(/C=C\\Br)c1)N2", "note": "(stereo not given)", "Drug uptake": 0.01}
    ]},
    {"system": "Putamen", "experiment": "Drug uptake in anesthetized cynomolgus monkey brain putamen after 155 mins postinjection", "format": "ADME, organism-based, Macaca fascicularis", "details": "in vivo", "values": [
      {"smiles": "O=C(OCCC[18F])C1C2CCC(CC1c1cccc(/C=C\\Br)c1)N2", "note": "(stereo not given)", "Drug uptake": 4.38}
    ]},
    {"system": "Thalamus", "experiment": "Drug uptake in anesthetized cynomolgus monkey brain thalamus after 125 mins postinjection", "format": "ADME, organism-based, Macaca fascicularis", "design": "unit not given here", "details": "in vivo", "values": [
      {"smiles": "O=C(OCCC[18F])C1C2CCC(CC1c1cccc(/C=C\\Br)c1)N2", "note": "(stereo not given)", "Drug uptake": 4.71}
    ]},
    {"system": "not listed separately", "experiment": "Ratio of drug uptake in medulla to cerebellum in anesthetized cynomolgus monkey after 1.5 mins postinjection", "format": "ADME, organism-based, Macaca fascicularis", "details": "in vivo, 0.025 h", "values": [
      {"smiles": "O=C(OCCC[18F])C1C2CCC(CC1c1cccc(/C=C\\Br)c1)N2", "note": "(stereo not given)", "Ratio": 0.9}
    ]},
    {"system": "Caudate", "experiment": "Drug uptake in anesthetized cynomolgus monkey brain caudate after 225 mins postinjection", "format": "ADME, organism-based, Macaca fascicularis, Caudate nucleus", "details": "in vivo, 3.75 h", "values": [
      {"smiles": "O=C(OCCC[18F])C1C2CCC(CC1c1cccc(/C=C\\Br)c1)N2", "note": "(stereo not given)", "Drug uptake": 3.46}
    ]},
    {"system": "Caudate", "experiment": "Drug uptake in anesthetized cynomolgus monkey brain caudate after 75 mins postinjection", "format": "ADME, organism-based, Macaca fascicularis, Caudate nucleus", "details": "in vivo, 1.25 h", "values": [
      {"smiles": "O=C(OCCC[18F])C1C2CCC(CC1c1cccc(/C=C\\Br)c1)N2", "note": "(stereo not given)", "Drug uptake": 5.17}
    ]},
    {"system": "not listed separately", "experiment": "Ratio of drug uptake in medulla to cerebellum in anesthetized cynomolgus monkey after 9.5 mins postinjection", "format": "ADME, organism-based, Macaca fascicularis", "details": "in vivo", "values": [
      {"smiles": "O=C(OCCC[18F])C1C2CCC(CC1c1cccc(/C=C\\Br)c1)N2", "note": "(stereo not given)", "Ratio": 1}
    ]},
    {"system": "not listed separately", "experiment": "Drug uptake in anesthetized cynomolgus monkey brain occipital lobe after 35 mins postinjection", "format": "ADME, organism-based, Macaca fascicularis", "details": "in vivo", "values": [
      {"smiles": "O=C(OCCC[18F])C1C2CCC(CC1c1cccc(/C=C\\Br)c1)N2", "note": "(stereo not given)", "Drug uptake": 4.66}
    ]},
    {"system": "not listed separately", "experiment": "Drug uptake in anesthetized cynomolgus monkey brain frontal lobe after 1.5 mins postinjection", "format": "ADME, organism-based, Macaca fascicularis", "details": "in vivo, 0.025 h", "values": [
      {"smiles": "O=C(OCCC[18F])C1C2CCC(CC1c1cccc(/C=C\\Br)c1)N2", "note": "(stereo not given)", "Drug uptake": 0.25}
    ]},
    {"system": "Caudate", "experiment": "Drug uptake in anesthetized cynomolgus monkey brain caudate after 45 mins postinjection", "format": "ADME, organism-based, Macaca fascicularis, Caudate nucleus", "details": "in vivo, 0.75 h", "values": [
      {"smiles": "O=C(OCCC[18F])C1C2CCC(CC1c1cccc(/C=C\\Br)c1)N2", "note": "(stereo not given)", "Drug uptake": 5.32}
    ]},
    {"system": "not listed separately", "experiment": "Ratio of drug uptake in midbrain to cerebellum in anesthetized cynomolgus monkey after 135 mins postinjection", "format": "ADME, organism-based, Macaca fascicularis", "details": "in vivo, 2.25 h", "values": [
      {"smiles": "O=C(OCCC[18F])C1C2CCC(CC1c1cccc(/C=C\\Br)c1)N2", "note": "(stereo not given)", "Ratio": 1.9}
    ]},
    {"system": "not listed separately", "experiment": "Ratio of drug uptake in putamen to cerebellum in anesthetized cynomolgus monkey after 75 mins postinjection", "format": "ADME, organism-based, Macaca fascicularis", "details": "in vivo, 1.25 h", "values": [
      {"smiles": "O=C(OCCC[18F])C1C2CCC(CC1c1cccc(/C=C\\Br)c1)N2", "note": "(stereo not given)", "Ratio": 1.4}
    ]},
    {"system": "not listed separately", "experiment": "Drug uptake in anesthetized cynomolgus monkey brain occipital lobe after 2.5 mins postinjection", "format": "ADME, organism-based, Macaca fascicularis", "details": "in vivo", "values": [
      {"smiles": "O=C(OCCC[18F])C1C2CCC(CC1c1cccc(/C=C\\Br)c1)N2", "note": "(stereo not given)", "Drug uptake": 1.03}
    ]},
    {"system": "Pons", "experiment": "Drug uptake in anesthetized cynomolgus monkey brain pons after 65 mins postinjection", "format": "ADME, organism-based, Macaca fascicularis", "details": "in vivo", "values": [
      {"smiles": "O=C(OCCC[18F])C1C2CCC(CC1c1cccc(/C=C\\Br)c1)N2", "note": "(stereo not given)", "Drug uptake": 4.93}
    ]},
    {"system": "not listed separately", "experiment": "Drug uptake in anesthetized cynomolgus monkey brain cerebellum after 35 mins postinjection", "format": "ADME, organism-based, Macaca fascicularis", "details": "in vivo", "values": [
      {"smiles": "O=C(OCCC[18F])C1C2CCC(CC1c1cccc(/C=C\\Br)c1)N2", "note": "(stereo not given)", "Drug uptake": 5.43}
    ]},
    {"system": "Midbrain", "experiment": "Drug uptake in anesthetized cynomolgus monkey brain midbrain after 65 mins postinjection", "format": "ADME, organism-based, Macaca fascicularis", "design": "unit not given here", "details": "in vivo", "values": [
      {"smiles": "O=C(OCCC[18F])C1C2CCC(CC1c1cccc(/C=C\\Br)c1)N2", "note": "(stereo not given)", "Drug uptake": 6.06}
    ]},
    {"system": "not listed separately", "experiment": "Drug uptake in anesthetized cynomolgus monkey brain cerebellum after 235 mins postinjection", "format": "ADME, organism-based, Macaca fascicularis", "details": "in vivo", "values": [
      {"smiles": "O=C(OCCC[18F])C1C2CCC(CC1c1cccc(/C=C\\Br)c1)N2", "note": "(stereo not given)", "Drug uptake": 1.87}
    ]},
    {"system": "not listed separately", "experiment": "Ratio of drug uptake in occipital lobe to cerebellum in anesthetized cynomolgus monkey after 105 mins postinjection", "format": "ADME, organism-based, Macaca fascicularis", "details": "in vivo, 1.75 h", "values": [
      {"smiles": "O=C(OCCC[18F])C1C2CCC(CC1c1cccc(/C=C\\Br)c1)N2", "note": "(stereo not given)", "Ratio": 1.1}
    ]},
    {"system": "Midbrain", "experiment": "Drug uptake in anesthetized cynomolgus monkey brain midbrain after 235 mins postinjection", "format": "ADME, organism-based, Macaca fascicularis", "details": "in vivo", "values": [
      {"smiles": "O=C(OCCC[18F])C1C2CCC(CC1c1cccc(/C=C\\Br)c1)N2", "note": "(stereo not given)", "Drug uptake": 4.33}
    ]},
    {"system": "Putamen", "experiment": "Drug uptake in anesthetized cynomolgus monkey brain putamen after 9.5 mins postinjection", "format": "ADME, organism-based, Macaca fascicularis", "design": "unit not given here", "details": "in vivo", "values": [
      {"smiles": "O=C(OCCC[18F])C1C2CCC(CC1c1cccc(/C=C\\Br)c1)N2", "note": "(stereo not given)", "Drug uptake": 5.12}
    ]},
    {"system": "Pons", "experiment": "Drug uptake in anesthetized cynomolgus monkey brain pons after 85 mins postinjection", "format": "ADME, organism-based, Macaca fascicularis", "details": "in vivo", "values": [
      {"smiles": "O=C(OCCC[18F])C1C2CCC(CC1c1cccc(/C=C\\Br)c1)N2", "note": "(stereo not given)", "Drug uptake": 4.59}
    ]},
    {"system": "Thalamus", "experiment": "Drug uptake in anesthetized cynomolgus monkey brain thalamus after 145 mins postinjection", "format": "ADME, organism-based, Macaca fascicularis", "design": "unit not given here", "details": "in vivo", "values": [
      {"smiles": "O=C(OCCC[18F])C1C2CCC(CC1c1cccc(/C=C\\Br)c1)N2", "note": "(stereo not given)", "Drug uptake": 4.62}
    ]},
    {"system": "not listed separately", "experiment": "Drug uptake in anesthetized cynomolgus monkey brain cerebellum after 135 mins postinjection", "format": "ADME, organism-based, Macaca fascicularis", "details": "in vivo, 2.25 h", "values": [
      {"smiles": "O=C(OCCC[18F])C1C2CCC(CC1c1cccc(/C=C\\Br)c1)N2", "note": "(stereo not given)", "Drug uptake": 2.89}
    ]},
    {"system": "Midbrain", "experiment": "Drug uptake in anesthetized cynomolgus monkey brain midbrain after 135 mins postinjection", "format": "ADME, organism-based, Macaca fascicularis", "details": "in vivo, 2.25 h", "values": [
      {"smiles": "O=C(OCCC[18F])C1C2CCC(CC1c1cccc(/C=C\\Br)c1)N2", "note": "(stereo not given)", "Drug uptake": 5.36}
    ]},
    {"system": "Putamen", "experiment": "Drug uptake in anesthetized cynomolgus monkey brain putamen after 27.5 mins postinjection", "format": "ADME, organism-based, Macaca fascicularis", "design": "unit not given here", "details": "in vivo", "values": [
      {"smiles": "O=C(OCCC[18F])C1C2CCC(CC1c1cccc(/C=C\\Br)c1)N2", "note": "(stereo not given)", "Drug uptake": 5.95}
    ]},
    {"system": "not listed separately", "experiment": "Drug uptake in anesthetized cynomolgus monkey brain frontal lobe after 125 mins postinjection", "format": "ADME, organism-based, Macaca fascicularis", "details": "in vivo", "values": [
      {"smiles": "O=C(OCCC[18F])C1C2CCC(CC1c1cccc(/C=C\\Br)c1)N2", "note": "(stereo not given)", "Drug uptake": 2.93}
    ]},
    {"system": "not listed separately", "experiment": "Ratio of drug uptake in pons to cerebellum in anesthetized cynomolgus monkey after 105 mins postinjection", "format": "ADME, organism-based, Macaca fascicularis", "details": "in vivo, 1.75 h", "values": [
      {"smiles": "O=C(OCCC[18F])C1C2CCC(CC1c1cccc(/C=C\\Br)c1)N2", "note": "(stereo not given)", "Ratio": 1.3}
    ]},
    {"system": "Putamen", "experiment": "Drug uptake in anesthetized cynomolgus monkey brain putamen after 165 mins postinjection", "format": "ADME, organism-based, Macaca fascicularis", "details": "in vivo, 2.75 h", "values": [
      {"smiles": "O=C(OCCC[18F])C1C2CCC(CC1c1cccc(/C=C\\Br)c1)N2", "note": "(stereo not given)", "Drug uptake": 4.31}
    ]}
  ]
}
